The source of these data is US4292319A, “Antiphlogistic pharmaceutical compositions and method of use” (Boehringer Ingelheim GmbH, priority 1977, dated 1981).

Data set [1] relates to kaolin-induced edema of the rat's hind paw. Briefly: Test for antiphlogistic effect against the kaolin-induced edema of the rat's hind paw. The class given is in vivo, rat (Chbb:THOM). To be noted: rat; for ED35: Rattus norvegicus, po, 5 h, kaolin edema; for Thickness of the paw (mean): oral, 5 h after kaolin. Here is the method:
(2) Test for antiphlogistic effect against the kaolin-induced edema of the rat's hind paw (tested substances: A, B, C and D)
The test was carried out on male Chbb:THOM-rats with a body weight between 125 and 150 gm. According to HILLEBRECHT [Arzneimittel-Forsch. 4, 607 (1954)], a subplantary injection of 0.05 ml of a 10% suspension of kaolin in an aqueous 0.85% sodium chloride solution in the hind paw was used for the provocation of the kaolin edema. The other hind paw was subplantarily injected with the same volume of an aqueous 0.85% sodium chloride solution.
The measurement of the thickness of the paws was carried out using the technique of DOEPFNER and […] [Int. Arch. Allergy appl. Immunol. 12, 89 (1958)] by way of the determination of the maximum sagittal diameter, using a measuring device with constant pressure, before and 5 hours after the provocation of the edema.
The test substances (the non-steroidal antiphlogistics or the mixture of non-steroidal antiphlogistics with pirenzepine dihydrochloride) were administered 30 minutes before provocation of the edema as a trituration in 1% tylose (1 ml/[…]) by way of an esophageal tube.
The diameter of the paw measured before the beginning of the test as well as the increase in diameter of the other paw caused by injection were subtracted from the diameter of the kaolin-treated paw, and this difference, being the real swelling value, was used for the further calculations.
From the swelling values obtained by administration of different dosages of non-steroidal antiphlogistics with or without the addition of pirenzepine dihydrochloride, using a linear regression analysis according to LINDNER [Statistische Methoden, 4th Ed., pages 148-162, Birkhauser, Basel, Switzerland (1964)], the ED35 values of the antiphlogistics were calculated with the confidence limits according to FIELLER [Quart. J. Pharm. Pharmacol. 17, 117 (1944)], the ED35 being the dosage which reduces the swelling of the paws by 35% in comparison to the control animals.

In another data set the test system is gastro-intestinal tract. To be noted: clinical; depending upon experience, patients and compound primarily used; cited from earlier work.
Another data set has as its system ulcer. The class given is in vivo. To be noted: without pirenzepine dihydrochloride; several hundred cases, two years.
In another data set the test system is stomach of the rat. The data set is described as follows: Test for ulcerogenic effect on the stomach of the rat. The class given is in vivo, rat (Chbb:THOM). To be noted: oral, 3 subsequent days. As for the experimental part: (§1) (1) Test for ulcerogenic effect on the stomach of the rat
(§2) The test was carried out on male and female (1:1) Chbb:THOM-rats with a body weight between 130 to 150 gm at the beginning of the study.
(§3) The test substances (non-steroidal anti-phlogistics or mixtures of these antiphlogistics with pirenzepine dihydrochloride) were administered as triturations in 1% tylose (1 ml/100 gm animal) by way of an esophageal tube once a day on three successive days.
(§4) Four hours after the last administration (i.e. on the 3rd day) the animals were killed by an over-dose of ether. The stomachs wer dissected, cut along the great curvature and washed under flowing water for subsequent macroscopic evaluation.

Test in data set [2]: as above
Type of data set: in vivo, rat (Chbb:THOM). To be noted: in vivo, po, oral, 3 subsequent days, read-out: ED50-ulcer. Here is the method: as §1, §2, §3, §4

Data set [3] relates to gastro-intestinal side-effects caused by non-steroidal antiphlogistics. Briefly: Clinical tests of suppression of gastro-intestinal side-effects by pirenzepine. The class given is in vivo.

Each structure is given as a SMILES string. Where two headings read alike, the source gives them in different places.

As for `COc1ccc2c(c1)c(CC(=O)O)c(C)n2C(=O)c1ccc(Cl)cc1` [B, 1-(4-chloro-benzoyl)-5-methoxy-2-methyl-1H-indole-3-aceticacid], the ED35 in data set [1] (with A 100 mgm/kg) came out at 3 mg/kg; in data set [1] (without A), 4.3 mg/kg. The “Thickness of the paw (mean)” value in data set [1] (antiphlogistic 1.5 mgm/kg + A 100 mgm/kg) is reported as 200.3 10^-2 mm; in data set [1] (antiphlogistic 1.5 mgm/kg, without A), 214.8 10^-2 mm; in data set [1] (antiphlogistic 3.0 mgm/kg + A 100 mgm/kg) it was 178.3 10^-2 mm; in data set [1] (antiphlogistic 3.0 mgm/kg, without A) it was 189.0 10^-2 mm; in data set [1] (antiphlogistic 6.0 mgm/kg + A 100 mgm/kg) it was 162.9 10^-2 mm; in data set [1] (antiphlogistic 6.0 mgm/kg, without A), 164.5 10^-2 mm. Also, in the data set on gastro-intestinal tract, the “gastro-intestinal incompatabilities encountered, share of all cases” value is listed as 25-37%. The ulcer rate with ulcer is 37%. Besides, the “Ratio of animals with ulcers” value was 4/18 in the data set with stomach of the rat (antiphlogistic 2 mgm/kg, without A); 4/16 in the data set on stomach of the rat (antiphlogistic 2.8 mgm/kg + A 50 mgm/kg); 4/16 in the data set on stomach of the rat (antiphlogistic 2.8 mgm/kg + A 100 mgm/kg); 11/18 with stomach of the rat (antiphlogistic 2.8 mgm/kg, without A); 12/16 in the data set on stomach of the rat (antiphlogistic 4.0 mgm/kg + A 50 mgm/kg); 5/15 in the data set on stomach of the rat (antiphlogistic 4.0 mgm/kg + A 100 mgm/kg). Further, the “Ratio of animals with ulcers” value is on record as 16/18 in the data set with stomach of the rat (antiphlogistic 4 mgm/kg, without A); 13/15 with stomach of the rat (antiphlogistic 5.66 mgm/kg + A 50 mgm/kg); 8/15 in the data set with stomach of the rat (antiphlogistic 5.66 mgm/kg + A 100 mgm/kg); 15/15 in the data set on stomach of the rat (antiphlogistic 8.0 mgm/kg + A 100 mgm/kg). Besides, the TD50 amounted to 3.3 mg/kg in data set [2] (with A 50 mgm/kg), 4.9 mg/kg in data set [2] (with A 100 mgm/kg) and 2.55 mg/kg in data set [2] (without A).

Consider `CN1CCN(CC(=O)N2c3ccccc3C(=O)Nc3cccnc32)CC1` [pirenzepine, 5,11-dihydro-11-[(4-methyl-1-piperazinyl)-acetyl]-6H-pyrido[2,3-b] [1,4] benzodiazepin-6-one], for which the “incompatibilities between pirenzepine and non-steroidal antiphlogistics” value in data set [3] (combined administration) is “not observed any incompatibilities”. Besides, the “mucous membrane protection by single therapeutic doses at 12-hour intervals” value in data set [3] (single therapeutic doses at 12-hour intervals) is “sufficient to assure round-the-clock mucous membrane protection”.
